From ChEMBL document CHEMBL1201862, “PubChem BioAssay data set” (2004)
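These data come from cells grown in 96-well plates and exposed to compound for 48 hours at five concentrations. The concentration for 50% growth inhibition is given as GI50.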 The source made the active and inactive calls. Rule as the data show it: active = GI50 up to about 1.1 µM and inactive = higher.

Legend:
Assay in all cases: NCI tumour cell line growth inhibition, 48 h
UACC-257 = tested on: UACC-257
SK-MEL-28 = tested on: SK-MEL-28
SK-MEL-2 = tested on: SK-MEL-2
SN12C = tested on: SN12C
SNB-78 = tested on: SNB-78
786-0 = tested on: 786-0
MOLT-4 = tested on: MOLT-4
OVCAR-4 = tested on: OVCAR-4
HT-29 = tested on: HT-29
SF-295 = tested on: SF-295
A549 = tested on: A549
DMS-114 = tested on: DMS-114
KM12 = tested on: KM12
SK-OV-3 = tested on: SK-OV-3
SW-620 = tested on: SW-620
KM-20L2 = tested on: KM-20L2
UO-31 = tested on: UO-31
NCI-H23 = tested on: NCI-H23
MCF7 = tested on: MCF7
SR = tested on: SR

Measured: GI50

Nc1ccc(C(=O)NN2C(=O)C(Cl)C2c2cccc(O)c2)cc1 (stereo not drawn)
inactive: UACC-257 18.3 µM | SK-MEL-28 16.9 µM | SK-MEL-2 15 µM | SN12C 17.8 µM | SNB-78 17.5 µM | 786-0 13.4 µM | MOLT-4 11.3 µM | OVCAR-4 16.7 µM | HT-29 17.4 µM | SF-295 18.3 µM | A549 19.8 µM | DMS-114 5.45 µM | KM12 10.7 µM | SK-OV-3 19.5 µM | SW-620 19.2 µM | KM-20L2 17.1 µM | UO-31 19.7 µM | NCI-H23 15.5 µM

O[C@H]1[C@H]2[C@H](O)CCCN2C[C@H]1O [TRIDOLGOSIR]
inactive: UACC-257 > 100 µM | SK-MEL-28 > 100 µM | SK-MEL-2 > 100 µM | SN12C > 100 µM | SNB-78 > 100 µM | 786-0 > 100 µM | MOLT-4 > 100 µM | OVCAR-4 > 100 µM | HT-29 > 100 µM | SF-295 > 100 µM | A549 > 100 µM | DMS-114 > 100 µM | KM12 > 100 µM | SK-OV-3 > 100 µM | SW-620 > 100 µM | KM-20L2 > 100 µM | UO-31 > 100 µM | NCI-H23 > 100 µM

N=C(N)NCCCC(NCc1c2ccccc2nc2ccccc12)C(=O)O (stereo not drawn)
inactive: UACC-257 33.7 µM | MCF7 32 µM | SK-MEL-28 > 66.7 µM | SK-MEL-2 41 µM | SN12C 39.2 µM | 786-0 31.3 µM | MOLT-4 8 µM | OVCAR-4 29.2 µM | HT-29 18.9 µM | SF-295 48 µM | A549 37.2 µM | DMS-114 23.3 µM | KM12 21.6 µM | SK-OV-3 53.1 µM | SW-620 25.5 µM | KM-20L2 29.4 µM | UO-31 23.6 µM | SR 14.3 µM | NCI-H23 53.1 µM

NC(=O)C12C3C4C1C1C2C3C41C(N)=O (stereo not drawn)
inactive: UACC-257 > 100 µM | SK-MEL-28 > 100 µM | SK-MEL-2 > 100 µM | SN12C > 100 µM | 786-0 > 100 µM | MOLT-4 > 100 µM | OVCAR-4 > 100 µM | HT-29 > 100 µM | SF-295 > 100 µM | A549 > 100 µM | DMS-114 > 100 µM | KM12 > 100 µM | SK-OV-3 > 100 µM | SW-620 > 100 µM | KM-20L2 > 100 µM | UO-31 > 100 µM | NCI-H23 > 100 µM

COc1cc(/C=N/N=C(\N)NO)cc(Cl)c1O
inactive: UACC-257 73.8 µM | SK-MEL-28 20.7 µM | SK-MEL-2 81.1 µM | SN12C 48.8 µM | SNB-78 47.4 µM | 786-0 43.7 µM | MOLT-4 50.2 µM | OVCAR-4 76.9 µM | HT-29 > 100 µM | SF-295 58.7 µM | A549 41.8 µM | DMS-114 34.2 µM | KM12 78 µM | SK-OV-3 55.8 µM | SW-620 99.3 µM | UO-31 23.9 µM | SR 40.7 µM | NCI-H23 36.9 µM

CCCCNc1nc(C#N)c(N)s1
inactive: UACC-257 > 100 µM | SK-MEL-28 > 100 µM | SK-MEL-2 > 100 µM | SN12C > 100 µM | SNB-78 > 100 µM | 786-0 > 100 µM | MOLT-4 > 100 µM | OVCAR-4 > 100 µM | HT-29 > 100 µM | SF-295 > 100 µM | A549 > 100 µM | KM12 > 100 µM | SK-OV-3 > 100 µM | SW-620 > 100 µM | KM-20L2 > 100 µM | UO-31 > 100 µM | SR > 100 µM | NCI-H23 > 100 µM

C=C1CC(CC)(CCN2C(=O)c3ccccc3C2=O)OC1=O (stereo not drawn)
inactive: UACC-257 13.8 µM | SK-MEL-2 12.9 µM | SN12C 18.6 µM | 786-0 11.9 µM | MOLT-4 21.9 µM | OVCAR-4 14.2 µM | HT-29 14.1 µM | SF-295 29.2 µM | A549 27.7 µM | DMS-114 19.2 µM | KM12 21 µM | SW-620 7.55 µM | KM-20L2 15.8 µM | UO-31 19.7 µM | SR 27.4 µM | NCI-H23 14.1 µM

Fc1ccc(C2SCc3nc4ccccc4n32)cc1F (stereo not drawn)
inactive: UACC-257 42.1 µM | SK-MEL-28 23.4 µM | SK-MEL-2 23.8 µM | SN12C 41.7 µM | SNB-78 32.2 µM | 786-0 55.3 µM | MOLT-4 21.4 µM | OVCAR-4 18.2 µM | SF-295 40.5 µM | A549 33.6 µM | DMS-114 18.1 µM | KM12 27.6 µM | SK-OV-3 46.5 µM | SW-620 39.4 µM | KM-20L2 55.5 µM | UO-31 13.6 µM | NCI-H23 21.1 µM

COC(=O)C1=C(C(=O)OC)C23C=CC=CC24C(C(=O)OC)=C(C(=O)OC)C4C1C3 (stereo not drawn)
inactive: UACC-257 50.2 µM | SK-MEL-28 > 100 µM | SK-MEL-2 > 100 µM | SN12C > 100 µM | SNB-78 67.1 µM | 786-0 > 100 µM | MOLT-4 > 100 µM | OVCAR-4 > 100 µM | HT-29 > 100 µM | SF-295 > 100 µM | A549 > 100 µM | DMS-114 88.7 µM | KM12 > 100 µM | SW-620 > 100 µM | KM-20L2 > 100 µM | UO-31 > 100 µM | NCI-H23 > 100 µM

COc1cc(/C=C2\[C@H]3c4c(c(OC)c(C)c(OC)c4OC)C[C@@H](C(=O)N2Cc2ccccc2)N3C(=O)OC(C)C)c(OC)c(C)c1OC
inactive: UACC-257 34 µM | SK-MEL-28 > 100 µM | SK-MEL-2 > 100 µM | SN12C 88.7 µM | 786-0 > 100 µM | MOLT-4 42.9 µM | OVCAR-4 69.3 µM | HT-29 53.2 µM | SF-295 > 100 µM | A549 > 100 µM | DMS-114 47.5 µM | KM12 66.8 µM | SK-OV-3 2.52 µM | SW-620 54 µM | KM-20L2 > 100 µM | UO-31 66.7 µM | SR 21.8 µM | NCI-H23 78 µM

COC(=O)CCC(NC(=S)N/N=C(\C)c1ccco1)C(=O)OC (stereo not drawn)
inactive: UACC-257 > 100 µM | SK-MEL-28 > 100 µM | SK-MEL-2 > 100 µM | SN12C > 100 µM | SNB-78 > 100 µM | 786-0 > 100 µM | OVCAR-4 > 100 µM | HT-29 > 100 µM | SF-295 > 100 µM | A549 > 100 µM | DMS-114 > 100 µM | KM12 > 100 µM | SK-OV-3 > 100 µM | SW-620 > 100 µM | KM-20L2 > 100 µM | UO-31 > 100 µM | NCI-H23 > 100 µM
